Where two headings read alike, the source gives them in different places.
Experiments:
17β-HSD1 = molecular target: T1, 17β-HSD1 (Homo sapiens, UniProt P14061); test: 17β-HSD Type I activity in T-47D cells (E1→E2); format: cell-based; conditions: for inhibition at 10 µM: T47D
T1 construct: was measured in intact cell monolayers of T47D and MDA-MB-231 breast cancer cells respectively; endogenous in cells; host or cells: T-47D human breast cancer cells
T1 sequence (P14061 1-328): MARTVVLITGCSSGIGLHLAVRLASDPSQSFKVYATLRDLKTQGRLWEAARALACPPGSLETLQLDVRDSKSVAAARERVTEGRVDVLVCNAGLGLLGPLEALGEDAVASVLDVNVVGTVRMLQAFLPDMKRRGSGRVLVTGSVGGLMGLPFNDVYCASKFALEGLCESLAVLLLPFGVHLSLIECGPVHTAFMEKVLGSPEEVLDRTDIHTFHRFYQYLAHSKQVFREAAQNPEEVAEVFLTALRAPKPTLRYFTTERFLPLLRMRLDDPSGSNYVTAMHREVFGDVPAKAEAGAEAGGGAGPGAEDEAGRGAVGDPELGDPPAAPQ

17β-HSD2 = molecular target: T2, 17β-HSD2 (Homo sapiens, UniProt P37059); test: 17β-HSD Type II activity in MDA-MB-231 cells (E2→E1); format: cell-based
T2 construct: was measured in intact cell monolayers of T47D and MDA-MB-231 breast cancer cells respectively; endogenous in cells; host or cells: MDA-MB-231 human breast cancer cells
T2 sequence (P37059 1-387): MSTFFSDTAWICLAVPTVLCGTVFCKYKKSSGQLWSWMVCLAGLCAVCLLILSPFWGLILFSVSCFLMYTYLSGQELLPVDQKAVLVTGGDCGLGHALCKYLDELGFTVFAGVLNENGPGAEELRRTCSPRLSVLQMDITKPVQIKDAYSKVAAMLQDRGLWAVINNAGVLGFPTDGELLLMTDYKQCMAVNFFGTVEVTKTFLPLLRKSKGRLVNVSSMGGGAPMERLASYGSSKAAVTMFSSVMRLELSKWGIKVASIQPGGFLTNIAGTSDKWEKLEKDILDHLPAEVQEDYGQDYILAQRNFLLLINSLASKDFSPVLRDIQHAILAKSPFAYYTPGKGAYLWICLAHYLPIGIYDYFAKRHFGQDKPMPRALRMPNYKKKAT

[1] = 10 μM, T-47D cells, E1→E2, read-out: % inhibition of 17β-HSD1 @ 10 μM
[2] = 10 μM, MDA-MB-231 cells, E2→E1, read-out: % inhibition of 17β-HSD2 @ 10 μM
[3] = T-47D cells, E1→E2, read-out: IC50 (17β-HSD1)
[4] = read-out: % inhibition of 17β-HSD1 @ 10 μM, 10 μM, T-47D cells, E1→E2
[5] = MDA-MB-231, read-out: % inhibition of 17β-HSD2 @ 10 μM

Structure (SMILES) | inhibition at 10 µM (17β-HSD1; [1]) [%] | inhibition at 10 µM (17β-HSD2; [2]) [%] | IC50 (17β-HSD1) [µM] | IC50 (17β-HSD1; [3]) [µM] | inhibition at 10 µM (17β-HSD1; [4]) [%] | inhibition at 10 µM (17β-HSD2; [5]) [%]
COC(=O)C1CC2C3CCc4cc(O)ccc4C3CC[C@]2(C)[C@H]1O (stereo partly drawn) [compound 572] | 63 | 2 | – | – | – | –
CCOC(=O)CC1CC2C3CCc4cc(O)ccc4C3CC[C@]2(C)C1=O (stereo partly drawn) [compound 573] | 97 | 18 | 0.3 | – | – | –
CCOC(=O)CC1CC2C3CCc4cc(O)ccc4C3CC[C@]2(C)[C@H]1O (stereo partly drawn) [compound 574] | 67 | 18 | – | – | – | –
CN(C)c1ccc(CC2CC3C4CCc5cc(O)ccc5C4CC[C@]3(C)[C@H]2O)cc1 (stereo partly drawn) [compound 594, 16-(4-Dimethylamino-benzyl)-13-methyl-7,8,9,11,12,13,14,15,16,17-decahydro-6H-cyclopenta[a]phenanthrene-3,17-diol] | 41 | 25 | – | – | – | –
C[C@]12CCC3c4ccc(O)cc4CCC3C1CC(CC(=O)O)[C@@H]2O (stereo partly drawn) [compound 603] | 58 | 0 | – | – | – | –
C[C@]12CCC3C4CC=C(O)C=C4CCC3C1CC(CC(=O)O)C2=O (stereo partly drawn) [compound 604] | 13 | -5 | – | – | – | –
C[C@]12CCC3c4ccc(O)cc4CCC3C1CC(C(=O)O)C2=O (stereo partly drawn) [compound 610] | 95 | 1 | – | 0.94 | – | –
C[C@]12CCC3c4ccc(O)cc4CCC3C1CC(C(=O)O)[C@@H]2O (stereo partly drawn) [compound 611] | 39 | 4 | – | – | – | –
C[C@]12CCC3c4ccc(O)cc4CCC3C1CC(CO)[C@@H]2O (stereo partly drawn) [compound 612] | 86 | 17 | – | – | – | –
CC(C)/C=C1\CC2C3CCc4cc(O)ccc4C3CC[C@]2(C)[C@H]1O (stereo partly drawn) [compound 614] | 68 | 7 | – | – | – | –
C[C@]12CCC3c4ccc(O)cc4CCC3C1Cc1cccnc12 (stereo partly drawn) [compound 663] | 78 | 34 | – | – | – | –
CCOCC1CC2C3CCc4cc(O)ccc4C3CC[C@]2(C)C1=O (stereo partly drawn) [compound 664] | 92 | 19 | 0.32 | – | – | –
CCC(O)C1CC2C3CCc4cc(O)ccc4C3CC[C@]2(C)C1=O (stereo partly drawn) [compound 665] | 80 | -18 | – | – | – | –
C[C@]12CCC3c4ccc(O)cc4CCC3C1CC(CC(=O)NCc1ccco1)[C@@H]2O (stereo partly drawn) [compound 667] | 35 | 14 | – | – | – | –
C[C@]12CCC3c4ccc(O)cc4CCC3C1CC(CC(=O)NCC1CCCO1)[C@@H]2O (stereo partly drawn) [compound 668] | 63 | 25 | – | – | – | –
C[C@]12CCC3c4ccc(O)cc4CCC3C1CC(CC(=O)NCc1ccccn1)C2=O (stereo partly drawn) [compound 669] | – | – | – | – | 82 | 7
C[C@]12CCC3c4ccc(O)cc4CCC3C1CC(CC(=O)NCc1cccnc1)C2=O (stereo partly drawn) [compound 670] | 95 | 26 | – | 0.033 | – | –
C[C@]12CCC3c4ccc(O)cc4CCC3C1CC(CC(=O)NCC1CCCO1)C2=O (stereo partly drawn) [compound 671] | 91 | 21 | – | 0.38 | – | –
C[C@]12CCC3c4ccc(O)cc4CCC3C1CC(CC(=O)NCc1ccco1)C2=O (stereo partly drawn) [compound 672] | – | – | – | – | 85 | 3
C[C@]12CCC3c4ccc(O)cc4CCC3C1CC(C(=O)NCc1ccco1)[C@@H]2O (stereo partly drawn) [compound 679] | 87 | -9 | – | – | – | –
CN(C)CCCNC(=O)CC1CC2C3CCc4cc(O)ccc4C3CC[C@]2(C)C1=O (stereo partly drawn) [compound 688] | 36 | 13 | – | – | – | –
COCCNC(=O)CC1CC2C3CCc4cc(O)ccc4C3CC[C@]2(C)C1=O (stereo partly drawn) [compound 689] | 53 | 8 | – | – | – | –
C[C@H](NC(=O)CC1CC2C3CCc4cc(O)ccc4C3CC[C@]2(C)C1=O)c1ccccc1 (stereo partly drawn) [compound 690] | 83 | 10 | – | – | – | –
C[C@]12CCC3c4ccc(O)cc4CCC3C1CC(CC(=O)NCCc1ccccn1)C2=O (stereo partly drawn) [compound 691] | 58 | 14 | – | – | – | –
COc1cc(/C=C2\CC3C4CCc5cc(OS(N)(=O)=O)ccc5C4CC[C@]3(C)C2=O)cc(OC)c1OC (stereo partly drawn) [compound 692] | 4 | 17 | – | – | – | –

Structure (SMILES) | inhibition at 10 µM (17β-HSD1; [1]) [%] | inhibition at 10 µM (17β-HSD2; [2]) [%] | IC50 (17β-HSD1) [µM] | IC50 (17β-HSD1; [3]) [µM] | inhibition at 10 µM (17β-HSD1; [4]) [%] | inhibition at 10 µM (17β-HSD2; [5]) [%]
COc1cc(/C=C2\CC3C4CCc5cc(OS(N)(=O)=O)ccc5C4CC[C@]3(C)[C@H]2O)cc(OC)c1OC (stereo partly drawn) [compound 693] | 13 | 10 | – | – | – | –
C[C@]12CCC3c4ccc(O)cc4C(=O)CC3C1Cc1c[nH]nc12 (stereo partly drawn) [compound 737, 2-Hydroxy-6a-methyl-5,6,6a,8,10,10a,10b,11-octahydro-4bH-7,8-diazo-pentaleno[2,1-a]phenanthren-12-one] | 96 | -9 | – | 0.46 | – | –
CCN(C)C(=O)CC1CC2C3CCc4cc(O)ccc4C3CC[C@]2(C)C1=O (stereo partly drawn) [compound 741] | 79 | 5 | – | – | – | –
CCN(CC)C(=O)CC1CC2C3CCc4cc(O)ccc4C3CC[C@]2(C)C1=O (stereo partly drawn) [compound 742] | 82 | 2 | – | – | – | –
CC(C)NC(=O)CC1CC2C3CCc4cc(O)ccc4C3CC[C@]2(C)C1=O (stereo partly drawn) [compound 743] | 75 | 6 | – | – | – | –
CCNC(=O)CC1CC2C3CCc4cc(O)ccc4C3CC[C@]2(C)C1=O (stereo partly drawn) [compound 744] | 84 | 2 | – | – | – | –
CNC(=O)CC1CC2C3CCc4cc(O)ccc4C3CC[C@]2(C)C1=O (stereo partly drawn) [compound 745] | 90 | 3.5 | – | 1.5 | – | –
C[C@]12CCC3c4ccc(O)cc4CCC3C1CC(CC(=O)Nc1nccs1)C2=O (stereo partly drawn) [compound 746] | 30 | 16 | – | – | – | –
CC(C)(C)/C=C1\CC2C3CCc4cc(O)ccc4C3CC[C@]2(C)C1=O (stereo partly drawn) [compound 748] | 82 | 31 | – | – | – | –
CCO/C=C1/CC2C3CC(=O)c4cc(O)ccc4C3CC[C@]2(C)C1=O (stereo partly drawn) [compound 749] | 85 | 8 | – | – | – | –
CCN(C)C(=O)CC1CC2C3CCc4cc(O)ccc4C3CC[C@]2(C)[C@H]1O (stereo partly drawn) [compound 771] | 78 | 16 | – | – | – | –
CCN(CC)C(=O)CC1CC2C3CCc4cc(O)ccc4C3CC[C@]2(C)[C@H]1O (stereo partly drawn) [compound 772] | 79 | 14 | – | – | – | –
CC(C)NC(=O)CC1CC2C3CCc4cc(O)ccc4C3CC[C@]2(C)[C@H]1O (stereo partly drawn) [compound 773] | 67 | 11 | – | – | – | –
CCNC(=O)CC1CC2C3CCc4cc(O)ccc4C3CC[C@]2(C)[C@H]1O (stereo partly drawn) [compound 774] | 76 | 13 | – | – | – | –
CNC(=O)CC1CC2C3CCc4cc(O)ccc4C3CC[C@]2(C)[C@H]1O (stereo partly drawn) [compound 775] | 63 | 11 | – | – | – | –
C[C@]12CCC3c4ccc(O)cc4CCC3C1CC(C(=O)NCC1CCCO1)[C@@H]2O (stereo partly drawn) [compound 779] | 82 | 11 | – | – | – | –
COC(=O)C1(CN2C(=O)c3ccccc3C2=O)CC2C3CCc4cc(O)ccc4C3CC[C@]2(C)C1=O (stereo partly drawn) [compound 780] | 71 | 17 | – | – | – | –
CCOC(=O)c1[nH]nc2c1CC1C3CCc4cc(O)ccc4C3CC[C@]21C (stereo partly drawn) [compound 782] | 94 | 7 | – | 1.85 | – | –
C[C@]12CCC3c4ccc(O)cc4CCC3C1Cc1c2n[nH]c1C(=O)O (stereo partly drawn) [compound 783] | 32 | -6 | – | – | – | –
C[C@]12CCC3c4ccc(O)cc4C(=O)CC3C1C/C(=C/O)C2=O (stereo partly drawn) [compound 784] | 97 | -7 | – | 0.7 | – | –
Cn1cc2c(n1)[C@@]1(C)CCC3c4ccc(O)cc4CCC3C1C2 (stereo partly drawn) [compound 785] | – | – | – | 2.75 | 94 | 24
Cn1ncc2c1[C@@]1(C)CCC3c4ccc(O)cc4CCC3C1C2 (stereo partly drawn) [compound 786] | – | – | – | – | 43 | 32
C[C@]12CCC3c4ccc(O)cc4CCC3C1CC(C(=O)NCc1cccnc1)[C@@H]2O (stereo partly drawn) [compound 798] | 91 | -12 | 0.51 | – | – | –
CN1CCN(C(=O)C2CC3C4CCc5cc(O)ccc5C4CC[C@]3(C)[C@H]2O)CC1 (stereo partly drawn) [compound 799] | 74 | -16 | – | – | – | –
CCN(C)C(=O)C1CC2C3CCc4cc(O)ccc4C3CC[C@]2(C)[C@H]1O (stereo partly drawn) [compound 800] | 79 | -6 | – | – | – | –
